Assay results reported in PMC10949335, “Identification of a novel DNA repair inhibitor using an in silico driven approach shows effective combinatorial activity with genotoxic agents against multidrug‐resistant Escherichia coli” (Protein Science : A Publication of the Protein Society, 2024).
pIC50: −log10 of the molar value.

Legend:
UvrA = target: T1, UvrA (Escherichia coli, UniProt P0A698); assay: NADH-linked ATPase assay, Hill fit; format: biochemical
T1 construct: recombinant, IPTG-induced, Ni-NTA purified; plasmid as in Bernacchia et al. 2023; homodimer
T1 sequence (P0A698 whole entry): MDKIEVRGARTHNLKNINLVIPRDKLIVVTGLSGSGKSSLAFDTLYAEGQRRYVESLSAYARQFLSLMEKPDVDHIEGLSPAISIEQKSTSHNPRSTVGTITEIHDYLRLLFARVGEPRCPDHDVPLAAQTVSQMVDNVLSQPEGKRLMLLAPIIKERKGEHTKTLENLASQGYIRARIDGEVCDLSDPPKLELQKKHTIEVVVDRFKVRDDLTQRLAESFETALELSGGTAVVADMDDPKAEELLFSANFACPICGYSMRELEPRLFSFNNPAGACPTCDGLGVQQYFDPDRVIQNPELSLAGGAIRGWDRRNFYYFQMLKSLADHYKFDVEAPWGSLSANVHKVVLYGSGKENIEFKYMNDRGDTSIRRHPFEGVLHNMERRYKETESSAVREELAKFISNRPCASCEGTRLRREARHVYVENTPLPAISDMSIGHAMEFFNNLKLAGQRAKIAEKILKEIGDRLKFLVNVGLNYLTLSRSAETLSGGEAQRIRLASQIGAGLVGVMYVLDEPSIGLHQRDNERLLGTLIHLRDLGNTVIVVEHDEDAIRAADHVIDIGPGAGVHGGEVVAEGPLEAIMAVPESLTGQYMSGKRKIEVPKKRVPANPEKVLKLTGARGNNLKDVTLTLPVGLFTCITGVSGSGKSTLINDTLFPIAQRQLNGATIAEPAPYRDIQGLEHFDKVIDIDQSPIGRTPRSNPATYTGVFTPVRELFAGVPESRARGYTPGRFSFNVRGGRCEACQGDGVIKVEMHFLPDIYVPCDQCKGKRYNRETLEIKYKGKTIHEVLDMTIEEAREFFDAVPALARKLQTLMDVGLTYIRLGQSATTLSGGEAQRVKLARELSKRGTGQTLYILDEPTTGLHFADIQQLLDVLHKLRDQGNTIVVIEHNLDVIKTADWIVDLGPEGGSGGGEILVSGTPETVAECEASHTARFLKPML

[1] = target: T2, UvrA-mNeonGreen (UvrA-mNG) (Escherichia coli, UniProt P0A698); assay: C-trap optical tweezers, single-molecule DNA binding; format: biochemical; conditions: 20 μM Bemcentinib; lambda DNA at 50 pN; 1 mM ATP, 10 mM MgCl2, pH 7.5
T2 construct: C-terminal mNeonGreen reporter fusion; plasmid as in Bernacchia et al. 2023
T2 sequence (P0A698 whole entry, the tested form may be a part): as the sequence (P0A698 whole entry) above

SMILES: Nc1nc(Nc2ccc3c(c2)CC[C@@H](N2CCCC2)CC3)nn1-c1cc2c(nn1)-c1ccccc1CCC2 [Bemcentinib]
- pIC50 (UvrA): 5.13
- % reduction in DNA binders per minute at 20 μM [1]: ~ 90%
